From patent publication US20240383913A1, “THIOPHENE RING COMPOUND, PREPARATION METHOD THEREFOR AND APPLICATION THEREOF” (CENTER FOR EXCELLENCE IN MOLECULAR CELL SCIENCE, CHINESE …, priority 2021, published 2024)

Key:
[1] = target: T1, 5-HT2A receptor (Homo sapiens (Human), UniProt P28223); assay: Affinity for 5-HT2A receptors, radioligand competition with [3H]-ketanserin; assay type: binding; conditions: 293T membrane transiently expressing 5-HT2A
Protocol: The affinity of the compounds of the present disclosure for the 5-HT2A receptors was determined by the method of radioligand competition experiment. In the first step, a cell membrane component containing specific 5-HT2A receptor was prepared. A 10 cm dish was used for transfection with 10 ng of the 5-HT2A receptor and 40 μL of PEI. After 48 hours, the 10 cm dish was taken out from the cell incubator and the cultured cells had expressed the 5-HT2A receptor. A vacuum pump was used to suck off the culture medium, 3 mL of lysis buffer was added to each culture dish, and the cells were placed in a 4° C. cold room for 10 minutes. After the cells were detached, the cells were transferred to a 15 mL centrifuge tube and centrifuged at 1500 rpm for 5 minutes at 4° C., and the supernatant was discarded. The cell pellet was transferred to a tissue homogenizer, and 3 mL of lysis buffer was added and fully ground until the cells were broken. Then, cell suspension was equally aliquoted into several EP tubes, centrifuged at 12000 rpm for 5 minutes at 4° C., and the supernatant was discarded. The precipitate was the cell membrane component containing the 5-HT2A receptor. […] First, a standard binding buffer was added to the cell membrane component containing the 5-HT2A receptor, and the cell membrane was disrupted and resuspended with an electric tissue homogenizer. 30 μL of membrane protein suspension was added to each well of a 96-well plate. Then, 30 μL of different drugs were added to the 96-well plate sequentially from bottom to top to ensure that the final drug concentrations were 10^−5 M, 10^−6 M, 10^−7 M, 10^−8 M, 10^−9 M, and 0 M, with two replicates per treatment. Next, 30 μL of [3H]-ketanserin was added to each well of the 96-well plate. The plate was incubated for 2 hours at room temperature in the dark. Detection was conducted. The machine readout value reflected the amount of [3H]-ketanserin bound on the membrane, and after further data processing, the affinity Ki values of different compounds for the 5-HT2A receptor were obtained.

[2] = target: T2, dopamine D2 receptors (Homo sapiens (Human), UniProt P14416); assay: Dopamine D2 receptor β-arrestin2 BRET (recruitment); assay type: cell-based; conditions: for EC50: read-out: β-arrestin2 BRET EC50; for Emax: read-out: β-arrestin2 BRET (Emax %);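 as to all read-outs here: cells co-expressing Rluc-fused D2 receptor, GRK2 and GFP2-fused β-arrestin2, BRET read with coelenterazine 400a after adding drug over a concentration series, in duplicate wells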
T2 sequence (P14416 whole entry, the tested form may be a part): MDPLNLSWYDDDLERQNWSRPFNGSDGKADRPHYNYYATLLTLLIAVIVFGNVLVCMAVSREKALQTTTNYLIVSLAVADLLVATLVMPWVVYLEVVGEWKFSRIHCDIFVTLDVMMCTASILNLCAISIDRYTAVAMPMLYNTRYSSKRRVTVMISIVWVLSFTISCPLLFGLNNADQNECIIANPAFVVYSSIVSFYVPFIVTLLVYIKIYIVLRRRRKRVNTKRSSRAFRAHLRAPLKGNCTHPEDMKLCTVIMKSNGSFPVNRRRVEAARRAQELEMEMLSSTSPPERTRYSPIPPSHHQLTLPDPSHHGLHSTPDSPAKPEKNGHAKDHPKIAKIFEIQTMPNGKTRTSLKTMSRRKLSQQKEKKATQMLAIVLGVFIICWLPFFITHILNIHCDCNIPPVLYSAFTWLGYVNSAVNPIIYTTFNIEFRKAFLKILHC
Protocol: (§1) To examine the downstream G protein signaling pathway mediated by dopamine D2 receptors, on the first day, a 6 cm culture dish was used for transfection with 1 μg of dopamine D2 receptors, 1 μg of Gαi1 containing a C-terminal seaweed luciferase (Gαi1-Rluc), 1 μg of Gβ3, 1 μg of Gγ9 containing C-terminal green fluorescent protein (Gγ9-GFP), and 16 μL of PEI. At the same time, in order to examine the downstream β-arrestin2 signaling pathway mediated by dopamine D2 receptors, on the first day, a 6 cm culture dish was used for transfection with 500 μg of dopamine D2 receptors containing C-terminal seaweed luciferase (D2-Rluc), 500 μg of G protein-coupled receptor kinase 2 (GRK2), 2500 μg of β-arrestin2 containing N-terminal green fluorescent protein (GFP2-ARRB2) mixed with 14 μL of PEI. The next day, the confluent cells of a 6 cm culture dish were digested and reseeded into a 96-well plate with 100 μL of culture medium added to each well. On the third day, the drugs were added for test. The 96-well plate was taken out from the cell incubator to decant the culture medium, 40 μL of the substrate coelenterazine 400a (final concentration of 5 μM) was added to each well, and then 20 μL of different drugs were added sequentially from left to right to ensure that the final concentration of the drug decreased gradually from bottom to top, with two replicates per treatment. Finally, the prepared samples were loaded on machine for test. The machine readout value reflected the recruitment of β-arrestin2 to the membrane or the dissociation of G protein trimer. The former indicated the degree of activation of the β-arrestin2 signaling pathway downstream of the dopamine D2 receptors, and the latter indicated the degree of activation of the G protein signaling pathway downstream of the dopamine D2 receptors.

[3] = target: T3, 5-HT1A receptor (Homo sapiens (Human), UniProt P08908); assay: 5-HT1A receptor Gαi1 BRET (G protein trimer dissociation); assay type: cell-based; conditions: 5-HT1A receptor, G protein pathway; for EC50: read-out: Gαi1 BRET EC50;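 as to all read-outs here: cells transiently co-expressing 5-HT1A receptor, luciferase-tagged Gαi1, Gβ3 and GFP-tagged Gγ9, seeded in 96-well plates for BRET measurement of G protein signaling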
T3 sequence (P08908 whole entry): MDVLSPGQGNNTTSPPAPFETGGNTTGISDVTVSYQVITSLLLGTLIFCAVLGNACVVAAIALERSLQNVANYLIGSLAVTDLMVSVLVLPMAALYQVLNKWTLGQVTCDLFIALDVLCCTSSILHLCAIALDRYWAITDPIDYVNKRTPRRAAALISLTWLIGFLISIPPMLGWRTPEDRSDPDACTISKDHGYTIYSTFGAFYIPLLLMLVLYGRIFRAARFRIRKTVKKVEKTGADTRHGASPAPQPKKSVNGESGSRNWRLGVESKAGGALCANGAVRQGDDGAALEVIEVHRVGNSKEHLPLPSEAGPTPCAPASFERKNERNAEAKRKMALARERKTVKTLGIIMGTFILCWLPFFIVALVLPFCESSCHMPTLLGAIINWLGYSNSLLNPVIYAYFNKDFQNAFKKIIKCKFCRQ
Protocol: (§2) The affinity of the compounds of the present disclosure for the 5-HTIA receptors was determined by the method of radioligand competition experiment. In the first step, a cell membrane component containing specific 5-HTIA receptor was prepared. A 10 cm culture dish was used for transfection with 10 ng of the 5-HTIA receptor and 40 μL of PEI. After 48 hours, the 10 cm culture dish was taken out from the cell incubator and the cultured cells had expressed the 5-HTIA receptor. A vacuum pump was used to suck off the culture medium, 3 mL of lysis buffer was added to each culture dish, and the cells were placed in a 4° C. cold room for 10 minutes. After the cells were detached, the cells were transferred to a 15 mL centrifuge tube and centrifuged at 1500 rpm for 5 minutes at 4° C., and the supernatant was discarded. The cell pellet was transferred to a tissue homogenizer, and 3 mL of lysis buffer was added and fully ground until the cells were broken. Then, cell suspension was equally aliquoted into several EP tubes, centrifuged at 12000 rpm for 5 minutes at 4° C., and the supernatant was discarded. The precipitate was the cell membrane component containing the 5-HT1A receptor. […] First, a standard binding buffer was added to the cell membrane component containing the 5-HT1A receptor, and the cell membrane was disrupted and resuspended with an electric tissue homogenizer. 30 μL of membrane protein suspension was added to each well of a 96-well plate. Then, 30 μL of different drugs were added to the 96-well plate sequentially from bottom to top to ensure that the final drug concentrations were 10^−5 M, 10^−6 M, 10^−7 M, 10^−8 M, 10^−9 M, and 0 M, with two replicates per treatment. Next, 30 μL of [3H]-LSD was added to each well of the 96-well plate. The plate was incubated for 2 hours at room temperature in the dark. Detection was conducted. The machine readout value reflected the amount of [3H]-LSD bound on the membrane, and after further data processing, the affinity Ki values of different compounds for the 5-HTIA receptor were obtained. To examine the downstream G protein signaling pathway mediated by 5-HTIA receptors, on the first day, a 6 cm culture dish was used for transfection with 1 μg of 5-HTIA receptors, 1 μg of Gαi1 containing C-terminal seaweed luciferase (Gαi1-Rluc), 1 μg of Gβ3, 1 μg of Gγ9 containing C-terminal green fluorescent protein (Gγ9-GFP), and 16 μL of PEI. The next day, the confluent cells of a 6 cm culture dish were digested and reseeded into a 96-well plate with 100 μL of culture medium was added to each well. On the third day, the drugs were added for test. The 96-well plate was taken out from the cell incubator to decant the culture medium, 40 μL of the substrate coelenterazine 400a (final concentration of 5 μM) was added to each well, and then 20 μL of different drugs were added sequentially from left to right to ensure that the final concentration of the drug decreased gradually from bottom to top, with two replicates per treatment. Finally, the prepared samples were loaded on machine for test. The machine readout value reflected the dissociation of G protein trimer, and thereby indicated the degree of activation of the G protein signaling pathway downstream of the 5-HTIA receptors.

[4] = target: T2, dopamine D2 receptors; assay: Dopamine D2 receptor Gαi1 BRET (G protein trimer dissociation); assay type: cell-based; conditions: for EC50: read-out: Gαi1 BRET EC50; for Emax: read-out: Gαi1 BRET (Emax %);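 as to all read-outs here: transfected cells co-expressing D2 receptor, Gαi1-Rluc, Gβ3 and Gγ9-GFP, BRET with coelenterazine 400a at 5 µM read as G protein trimer dissociation, graded drug concentrations in duplicate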
Protocol: as §1

[5] = target: T2, dopamine D2 receptors; assay: Affinity for dopamine D2 receptors, radioligand competition with [3H]-Methylspiperone; assay type: binding; conditions: 293T membrane transiently expressing D2
Protocol: The affinity of the compounds of the present disclosure for the dopamine D2 receptors was determined by the method of radioligand competition experiment. In the first step, a cell membrane component containing specific dopamine D2 receptors was prepared. A 10 cm culture dish was used for transfection with 10 ng of the dopamine D2 receptors and 40 μL of polyethylenimine (PEI hereafter). After 48 hours, the 10 cm culture dish was taken out from the cell culture incubator and the cultured cells had expressed the dopamine D2 receptors. A vacuum pump was used to suck off the culture medium, 3 mL of lysis buffer was added to each culture dish, and the cells were placed in a 4° C. cold room for 10 minutes. After the cells were detached, the cells were transferred to a 15 mL centrifuge tube and centrifuged at 1500 rpm for 5 minutes at 4° C., and the supernatant was discarded. The cell pellet was transferred to a tissue homogenizer, and 3 mL of lysis buffer was added and fully ground until the cells were broken. Then, cell suspension was equally aliquoted into several EP tubes, centrifuged at 12000 rpm for 5 minutes at 4° C., and the supernatant was discarded. The precipitate was the cell membrane component containing the dopamine D2 receptors. […] First, a standard binding buffer was added to the cell membrane component containing the dopamine D2 receptors, and the cell membrane was disrupted and resuspended with an electric tissue homogenizer. 30 μL of membrane protein suspension was added to each well of a 96-well plate. Then, 30 μL of different drugs were added to the 96-well plate sequentially from bottom to top to ensure that the final drug concentrations were 10^−5 M, 10^−6 M, 10^−7 M, 10^−8 M, 10^−9 M, and 0 M, with two replicates per treatment. Next, 30 μL of [3H]-Methylspiperone was added to each well of the 96-well plate. The plate was incubated for 2 hours at room temperature in the dark. Detection was conducted. The machine readout value reflected the amount of [3H]-Methylspiperone bound on the membrane, and after further data processing, the affinity Ki values of different compounds for the dopamine D2 receptors were obtained.

[6] = target: T3, 5-HT1A receptor; assay: Affinity for 5-HT1A receptors, radioligand competition with [3H]-LSD; assay type: binding; conditions: 293T membrane transiently expressing 5-HT1A; [3H]-LSD; read-out: 5-HT1A affinity Ki;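 also: membranes from cells transiently transfected with 5-HT1A receptor, bound [3H]-LSD displaced by compound at 10^-9 to 10^-5 M, 2 h incubation at room temperature in the dark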
Protocol: as §2

[7] = target: T1, 5-HT2A receptor; assay: 5-HT2A receptor Gαq BRET (G protein trimer dissociation); assay type: cell-based; conditions: for EC50: 5-HT2A receptor, G protein pathway, read-out: Gαq BRET EC50; for Emax: read-out: Gαq BRET (Emax %);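 as to all read-outs here: cells transfected with 5-HT2A receptor, Gαq-Rluc, Gβ3 and Gγ9-GFP, BRET read with coelenterazine 400a (5 µM) across a compound dilution series in duplicate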
Protocol: (§3) To examine the downstream G protein signaling pathway mediated by 5-HT2A receptors, on the first day, a 6 cm culture dish was used for transfection with 1 μg of 5-HT2A receptors, 1 μg of Gαq containing C-terminal seaweed luciferase (Gαq-Rluc), 1 μg of Gβ3, 1 μg of Gγ9 containing C-terminal green fluorescent protein (Gγ9-GFP), and 16 μL of PEI. At the same time, in order to examine the downstream β-arrestin2 signaling pathway mediated by 5-HT2A receptors, on the first day, a 6 cm culture dish was used for transfection with 500 μg of 5-HT2A receptors containing C-terminal seaweed luciferase (5-HT2A-Rluc), 500 μg of G protein-coupled receptor kinase 2 (GRK2), 2500 μg of β-arrestin2 containing N-terminal green fluorescent protein (GFP2-ARRB2), and 14 μL of PEI. The next day, the confluent cells of a 6 cm culture dish were digested and reseeded into a 96-well plate with 100 μL of culture medium was added to each well. On the third day, the drugs were added for test. The 96-well plate was taken out from the cell incubator to decant the culture medium, 40 μL of the substrate coelenterazine 400a (final concentration of 5 μM) was added to each well, and then 20 μL of different drugs were added sequentially from left to right to ensure that the final concentration of the drug decreased gradually from bottom to top, with two replicates per treatment. Finally, the prepared samples were loaded on machine for test. The machine readout value reflected the recruitment of β-arrestin2 to the membrane or the dissociation of G protein trimer. The former indicated the degree of activation of the β-arrestin2 signaling pathway downstream of the 5-HT2A receptors, and the latter indicated the degree of activation of the G protein signaling pathway downstream of the 5-HT2A receptors.

[8] = target: T1, 5-HT2A receptor; assay: 5-HT2A receptor β-arrestin2 BRET (recruitment); assay type: cell-based; conditions: 5-HT2A receptor, β-arrestin2 pathway;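 also: cells co-expressing Rluc-tagged 5-HT2A receptor, GRK2 and GFP2-tagged β-arrestin2, read by BRET with coelenterazine 400a (5 µM) across graded drug concentrations in duplicate, signal reflecting β-arrestin2 membrane recruitment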
Protocol: as §3

[9] = D2 receptor, β-arrestin2 pathway

T1 sequence (P28223 whole entry, the tested form may be a part): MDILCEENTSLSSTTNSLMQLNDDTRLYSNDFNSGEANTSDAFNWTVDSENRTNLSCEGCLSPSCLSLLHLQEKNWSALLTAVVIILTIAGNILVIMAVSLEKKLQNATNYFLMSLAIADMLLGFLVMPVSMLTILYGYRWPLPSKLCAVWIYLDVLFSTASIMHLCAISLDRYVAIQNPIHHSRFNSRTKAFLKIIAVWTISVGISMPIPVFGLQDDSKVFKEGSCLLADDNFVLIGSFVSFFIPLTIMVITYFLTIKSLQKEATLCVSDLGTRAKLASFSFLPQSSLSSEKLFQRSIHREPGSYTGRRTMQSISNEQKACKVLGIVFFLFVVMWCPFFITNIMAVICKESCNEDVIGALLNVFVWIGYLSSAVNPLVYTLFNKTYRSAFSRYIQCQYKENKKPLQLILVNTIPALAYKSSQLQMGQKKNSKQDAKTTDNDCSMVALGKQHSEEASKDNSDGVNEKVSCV

SMILES	Ki [1] [nM]	β-arrestin2 BRET (Emax %) [2, 9]	EC50 [2, 9] [nM]	Gαi1 BRET (Emax %) [3]	EC50 [3] [nM]	Gαi1 BRET (Emax %) ([4]; D2 receptor, G protein pathway)	EC50 ([4]; D2 receptor, G protein pathway) [nM]	Ki [5] [nM]	Ki [6] [nM]	Emax [2, 9] [%]	Emax [3] [%]	Emax ([4]; D2 receptor, G protein pathway) [%]	EC50 [7] [nM]	Emax [7] [%]	Emax [8] [%]	Emax [2] [%]	Emax [4] [%]	EC50 ([8]; read-out: β-arrestin2 BRET EC50) [nM]
CN(C)C(=O)N[C@H]1CC[C@H](CCN2CCN3c4cccc5scc(c45)C[C@@H]3C2)CC1 [(+)-I-27]	450	(45.78%)	16	(60%)	206	(69.54%)	9.16	> 10000	170	–	–	–	–	–	–	–	–	–
c1cc2c3c(csc3c1)CC1CN(CC3CC3)CCN21 (centres unmarked) [Compound I-4, 8-(Cyclopropylmethyl)-6,6a,7,8,9,10-Hexahydropyrazino[1,2-a]Thieno [4,3,2-De]Quinoline]	–	–	11.2	–	12800	–	36.3	320	590	16.4	69	25	–	–	–	–	–	–
c1ccc(-c2cccc(CN3CCN4c5cccc6scc(c56)CC4C3)c2)cc1 (centres unmarked) [Compound I-7, 8-([1, l′-Biphenyl]-3-Ylmethyl)-6,6a, 7,8,9, 10-Hexahydropyrazino[1,2-a]Thieno [4,3,2-De]Quinoline]	–	–	–	–	–	–	–	–	39300	–	–	–	140	36.9	–	–	–	–
O=C1NCCN1c1cccc(CN2CCN3c4cccc5scc(c45)CC3C2)c1 (centres unmarked) [Compound I-9, 1-(3-((6a,7,9,10-Tetrahydropyrazino[1,2-a]Thieno [4,3,2-De]Quinolin-8 (6H)-Yl)Methyl)Phenyl) Imidazolidin-2-One]	690	–	28.6	–	14400	–	281	800	5460	24.2	55	23.1	747	25	–	–	–	–
O=C(CN1CCN2c3cccc4scc(c34)CC2C1)c1ccc(F)cc1 (centres unmarked) [Compound I-10, 1-(4-Fluorophenyl)-2-(6a,7,9,10-Tetrahydropyrazino[1,2-a]Thieno [4,3,2-De]Quinolin-8 (6H)-Yl) Ethan-1-One]	–	–	14.3	–	7200	–	796	2060	970	–	71	–	–	110	71.6	21.5	17.1	–
O=C(CCCN1CCN2c3cccc4scc(c34)CC2C1)c1ccc(F)cc1 (centres unmarked) [Compound I-11, 1-(4-Fluorophenyl)-4-(6a,7,9,10-Tetrahydropyrazino[1,2-a]Thieno [4,3,2-De]Quinolin-8 (6H)-Yl) Butan-1-One]	320	–	–	–	3870	–	–	470	4540	–	28	–	–	–	–	–	–	–
O=C(NCCN1CCN2c3cccc4scc(c34)CC2C1)c1ccc(F)cc1 (centres unmarked) [Compound I-12, 4-Fluoro-N-(2-(6a,7,9,10-Tetrahydropyrazino[1,2-a]Thieno [4,3,2-De]Quinolin-8 (6H)-Yl)Ethyl)Benzamide]	1520	–	–	–	1320	–	–	1210	590	–	93	–	–	–	5.7	–	–	5240
c1cc2c3c(csc3c1)CC1CN(CCCOc3ccc4c(c3)OCO4)CCN21 (centres unmarked) [Compound I-16, 8-(3-(Benzo[d][1,3]Dioxol-5-Yloxy) Propyl)-6,6a, 7,8,9,10-Hexahydropyrazino[1,2-a]Thieno [4,3,2-De]Quinoline]	> 10000	–	289	–	2720	–	44.8	1550	560	–	88	–	340	19.5	–	37.7	57.9	–
O=C1CCc2ccc(OCCCN3CCN4c5cccc6scc(c56)CC4C3)cc2N1 (centres unmarked) [Compound I-18, 7-(3-(6a,7,9,10-Tetrahydropyrazino[1,2-a]Thieno [4,3,2-De]Quinolin-8 (6H)-Yl) Propoxy)-3,4-Dihydroquinolin-2 (1H)-One]	160	–	279	–	696	–	33.9	270	10	–	82	–	–	–	–	71.9	91.3	–
O=c1ccc2ccc(OCCCCN3CCN4c5cccc6scc(c56)CC4C3)cc2[nH]1 (centres unmarked) [Compound I-19, 7-(4-(6a,7,9,10-Tetrahydropyrazino[1,2-a]Thieno [4,3,2-De]Quinolin-8 (6H)-Yl) Butoxy) Quinolin-2 (1H)-One]	1410	–	43.9	–	3670	–	8.26	10	30	–	81	–	1440	15.6	–	64.5	74.6	–
O=C1CCc2ccc(OCCCCN3CCN4c5cccc6scc(c56)CC4C3)cc2N1 (centres unmarked) [Compound I-20, 7-(4-(6a,7,9,10-Tetrahydropyrazino[1,2-a]Thieno [4,3,2-De]Quinolin-8 (6H)-Yl) Butoxy)-3,4-Dihydroquinolin-2 (1H)-One]	640	–	464	–	1540	–	107	30	160	–	72	–	5590	17.8	–	35.6	64	–
c1cc2c3c(csc3c1)CC1CN(CCCCOc3ccc4scnc4c3)CCN21 (centres unmarked) [Compound I-21, 8-(4-(Benzo[d]Thiazol-5-Yloxy)Butyl)-6,6a,7,8,9,10-Hexahydropyrazino[1,2-a]Thieno [4,3,2-De]Quinoline]	> 10000	–	233	–	8180	–	146	7180	3220	–	68	–	4380	16.6	–	32.6	54	–
O=C1c2ccccc2CCCN1CCCCN1CCN2c3cccc4scc(c34)CC2C1 (centres unmarked) [Compound I-25, 2-(4-(6a,7,9,10-Tetrahydropyrazino[1,2-a]Thieno [4,3,2-De]Quinolin-8 (6H)-Yl)Butyl)-2,3,4,5-Tetrahydro-1H-Benzo[c]Azepin-1-One]	300	–	61.5	–	1320	–	27.8	100	770	–	82	–	969	17.8	–	49.2	67.9	–
O=C1[C@H]2CCCC[C@H]2C(=O)N1CCCCN1CCN2c3cccc4scc(c34)CC2C1 (some centres unmarked) [Compound I-26]	–	–	44.8	–	489	–	573	–	400	–	88	–	339	26	–	19.8	47.9	–
O=C(N[C@H]1CC[C@H](CCN2CCN3c4cccc5scc(c45)CC3C2)CC1)N1CCCC1 (stereo partly drawn) [Compound I-28, N-(4-(2-(6a,7,9,10-Tetrahydropyrazino[1,2-a]Thieno [4,3,2-De]Quinolin-8 (6H)-Yl)Ethyl) Trans-Cyclohexyl) Pyrrolidine-1-Carboxamide]	520	–	38.7	–	142	–	18	80	50	–	59	–	184	12.5	–	34.2	30.7	–
